Data reported in patent US20100093641A1, “SILK PROTEIN-MIMICKING PEPTIDES AND COMPOSITIONS FOR PREVENTING OR TREATING CRANIAL NEUROPATHIES COMPRISING THE SAME” (BRAINGUARD CO.,LTD., priority 2006, published 2010).
No end group written: not given here.

Assays:
[1] = system: PD animal models having apoptotic dopaminergic neuronal cells by 6-OHDA; assay: Amphetamine-induced asymmetric rotation in 6-OHDA Parkinson's disease animal models; assay type: in vivo; details: 6-OHDA mice; SMPs 5 mg/kg intraperitoneally for 2 weeks; FIG. 2
Method: The protection efficacy of the present peptides was tested by behavior experiments using animal models. The mice with damaged dopaminergic neurons by 6-OHDA were administered with amphetamine to induce asymmetric rotation. Then, the present peptides were examined to recover normal states.
5-week old male mice (SAMTAKO, Korea) were used. Four-week old mice were purchased and adapted for one week, followed by establishing animal models using a stereotaxic system (KOFT, CA, USA). In these experiments, 6-OHDA (3 μg/μl in normal saline) was injected into the desired region (0.0 mm posterior to bregma; 2.0 mm lateral to midline; 3.0 mm ventral to the dura) by use of the stereotaxic system, resulting in establishment of animal models. 6-OHDA was injected into substantial nigra in which neurites of dopminergic neurons are connected and sustained death of dopminergic neurons is well induced. Two weeks after 6-OHDA injection, animals were tested for amphetamine-induced turning behavior (amphetamine at 0.1 mg/kg i.p.). The mice were tested for […]. Animals with net rotational asymmetry of at least 400 full turns were selected for test. 5 mg/kg of SMPs were intraperitoneally administered for 2 weeks and their effects were examined by behavior tests. The asymmetric rotation was rapidly relieved with the lapse of time.

[2] = system: Alzheimer's disease animal models; assay: Passive avoidance test after amyloid beta injection; assay type: in vivo, rat; details: amyloid beta injected; 5 mg/kg i.p. for 2 weeks; FIG. 4
Method: This experiment was carried out according to the passive avoidance test to examine whether the SMPs prevents the declines in learning and memory abilities by neurotoxic substances. Before performing learning test, the amyloid beta protein was injected into animals through the ventral lateral region using a stereotaxic system, resulting in establishing Alzheimer's disease animal models. 3-day later, 5 mg/kg of SMPs were intraperitoneally administered for 2 weeks. Automated shuttle box (Model PACS-30, Columbus Instruments International Company) was used as test device. The shuttle box was divided into two rooms with the same area (19″ L×9″ W×10.875″ H) by middle door (3″ L×2.625″ W), and their floors were equipped with current-generating device. Each room might be lighted a 20 W light bulb on hinged plexiglass lid. A white rat might enter a dark room through the door. Noise was control below 60 dB and the test was performed in the dark room. The rat was initially placed in a lighted room and moved to a dark room when the door was opened. At this time, the door was automatically closed and light was turned off. […] Two weeks after injection of the amyloid beta protein through the ventral lateral region (8 nmol/ 5 μl in normal saline), the rat was placed in the lighted room, and time required for the rat to move to the dark room was measured. […]

dopaminergic neurons = assay: Dopaminergic neuronal cell death induced by 6-OHDA, methyl green histochemical staining; assay type: in vivo; details: 6-OHDA injected mice; SMPs 5 mg/kg intraperitoneally for 2 weeks; FIG. 1
Method: To analyze neuroprotective effects of the present peptides SMPs, their influence on the death of dopaminergic neurons, a main cause of Parkinson's disease, was tested. 6-OHDA (6-hydroxydopamine) was injected into brain tissues using a stereotaxic system and the death of dopaminergic neurons was observed by histochemcial staining.
5-week old male mice (SAMTAKO, Korea) were used. Four-week old mice were purchased and adapted for one week, followed by inducing the death of neuronal cells using a stereotaxic system (KOFT, CA, USA). In these experiments, 6-OHDA (3 μg/μl in normal saline) was injected into the desired region (0.0 mm posterior to bregma; 2.0 mm lateral to midline; 3.0 mm ventral to the dura) by use of the stereotaxic system, resulting in establishment of animal models. 6-OHDA was injected into substantial nigra in which neurites of dopminergic neurons are connected and sustained death of dopminergic neurons is well induced. After injection of 6-OHDA, 5 mg/kg of SMPs were intraperitoneally administered for 2 weeks. Thereafter, the test mice were fixed using 4% paraformaldehyde. Following the dissection of brain tissues from test mice, they were washed with PBS containing 4% paraformaldehyde for 24 hr and then dehydrated for 4 days using 15%, 20%, 25% and 30% sucrose solutions. The brain tissues were sliced by a freezing microtome. […]

SK-N-SH cells [3] = assay: MTT reduction cell viability against amyloid beta; assay type: cell-based, human; details: 10 fM for 2 hr before amyloid beta, 48 hr; FIG. 6b
Source text: The survival rate and nuclear fragmentation of neuronal cells indicating apoptosis of neuron were examined to verify the neuroprotective effects of SMPs against neurotoxic effects of the amyloid beta protein. For identifying mechanisms governing the protective effects against amyloid beta in animal tests, neurotoxic effects and nuclear damages in neuronal cell lines were examined. The substance “cosmo” used in this experiment was obtained by a preparation process identical to that for the substance MD.
The MTT reduction analysis was carried out. The human neuroblastoma cells, SK—N—SH cells (ATCC) were plated on PEI-coated 96-well plates at a density of 40,000 cells/well. The cells were cultured in DMEM supplemented with 10% FBS (fetal bovine serum). 2-hr before experiments, the medium was changed with low serum medium (DMEM with 1% FBS) and the cells were incubated with each test substance. […] Formazan precipitates formed by MTT reduction were dissolved in the solution (0.1 N HCl in anhydrous isopropanol), and absorbance at 570 nm was determined by ELISA
Reader. The value of the control group (only containing solvent) was determined as 100% and that of 0.9% Triton X-100-treated group as 0%. The value of each sample was relatively determined with referring the reference values.

p-Akt = p-Akt level on electrophoresis under high glucose; assay type: cell-based, human; details: 35 mM glucose; FIG. 9b
Method: To identify molecular mechanisms governing neuroprotective activities of the present peptides on apoptosis of neuronal cells caused by high glucose level, p-Akt and p-JNK were analyzed on electrophoresis.

SK-N-SH cells [4] = assay: Nuclear fragmentation by Hoechst 33258 staining against amyloid beta; assay type: cell-based, human; details: 10 fM for 2 hr, then 20 μM amyloid beta for 24 hr; FIG. 6a
Method: The morphological changes of nuclear chromosomes by amyloid beta were observed by staining with DNA-binding fluorochrome bis-benz (Hoechst 33258 dye). SK—N—SH cells were incubated with 10 fM SMPs for 2 hr and then with 20 μM amyloid beta for 24 hr. 0.5-3.0×10^6 cells treated were centrifuged at 300×g for 10 min and washed with PBS, followed by fixation with 50 μl paraformaldehyde for 10 min at room temperature. After washing with PBS, cells were incubated with 16 μg/ml bis-benzimide in PBS (15 μl) for 15 min at room temperature and their 10 μl-aliquot was placed on a slid glass, followed by the observation of apoptotic nuclear chromosome under a fluorescence microscope.

SK-N-SH cells [5] = assay: Mitochondrial membrane potential by TMRE staining against amyloid beta; assay type: cell-based, human; details: 10 fM for 2 hr, then 20 μM amyloid beta for 6 hr; FIGS. 8a-8c
Source text: We examined the influence of the present peptides on subcellular mitochondria to play a crucial role in cellular energy generation. It have been already reported that the amyloid beta protein induces elevation of reactive oxygen species in cells and simultaneously results in nuclear fragmentation, dysfunction of mitochondrial membrane and loss of mitochondrial functions. In this regard, we examined the influence of the present peptides on mitochondrial functions relating closely to cell viability.
Using a fluorescent staining with TMRE (tetramethyl rhodamine-ethylester, Molecular Probe), the disruption of mitochondrial membrane potential was measured. The positively charged TMRE is penetrated into mitochondrial membrane with help of mitochondrial membrane potential, and the fluorescent intensities indicate the maintenance of mitochondrial membrane potential. SK—N—SH cells (ATCC) were first treated with 10 fM SMPs for 2 hr and then with 20 μM amyloid beta protein for 6 hr. Afterwards, cells were incubated for 15 min at 37° C. with 100 nM TMRE and the fluorescent intensities were measured using a fluoremetry at excitation wavelength of 549 nm and emission wavelength of 574 nm. The fluorescent images were taken using a fluorescence microscope (Olympus IX70) and CCD camera.

SK-N-SH cells [6] = assay: Reactive oxygen species by DCF-DA staining against amyloid beta; assay type: cell-based, human; details: 10 fM for 2 hr, then 20 μM amyloid beta; FIG. 7a
Method: For identifying molecular mechanisms governing neuroprotective effects of the present peptides, reactive oxygen species (ROS) known to involve in neurotoxicity of amyloid beta were analyzed. Using a DCF-DA staining method, quantitative determination of reactive oxygen species was performed and microscopic observation was performed.
SK—N—SH cells (ATCC) were first treated with 10 fM SMPs for 2 hr and then with 20 μM amyloid beta protein. Afterwards, cells were incubated for 30 min at 37° C. with 10 μM DCF-DA (6-carboxy-2′,7′-dichloro-dihydrofluoresceine diacetate, dicarboxym-ethylester) dissolved in HCSS buffer solution (20 mM HEPES, 2.3 mM CaCl2, 120 mM NaCl, 10 mM NaOH, 5 mM KC1, 1.6 mM MgCl2, 15 mM glucose) and 2% Pluronic F-127 (suspension additive).

SK-N-SH neuronal cells = assay: Neuronal damage caused by high glucose level; assay type: cell-based, human; details: 35 mM glucose, 3 hr; FIG. 9a
Method: Diabetes characterized by high level of glucose causes events to damage cells and tissues. This experiment is to analyze neuroprotective activities of SMPs on SK—N—SH neuronal cells in high level of glucose (35 mM).

Molecule	relief of behavior disorders (amphetamine-induced asymmetric rotation) [1]	decline in learning and memory abilities (passive avoidance) [2]	prevention of death of dopaminergic neurons (neurotoxicity of 6-OHDA) (dopaminergic neurons)	inhibition of apoptosis of neuronal cells (cell viability, MTT) (SK-N-SH cells [3])	level of p-Akt (p-Akt)	nuclear fragmentation (SK-N-SH cells [4])	abnormality of mitochondrial membrane (TMRE fluorescence) (SK-N-SH cells [5])	levels of reactive oxygen species (SK-N-SH cells [6])	inhibition of apoptosis caused by high glucose level (SK-N-SH neuronal cells)	effect on reactive oxygen species compared to oligo 1 (SK-N-SH cells [6])
COc1ccc2[nH]cc(CCNC(C)=O)c2c1 [melatonin]	contribute to the relief of behavior disorders	prevent the decline in learning and memory abilities	effectively prevented							
GAGAGVGY [SMP-1, GAGAGVGY]				dramatically inhibit apoptosis of neuronal cells	highest level of p-Akt	greatly decreased	little or no abnormality of mitochondrial membrane	decrease in levels of reactive oxygen species at similar extent	effectively inhibits apoptosis	
GVGAGY [SMP-4, GVGAGY]				dramatically inhibit apoptosis of neuronal cells		greatly decreased	little or no abnormality of mitochondrial membrane	decrease in levels of reactive oxygen species at similar extent	effectively inhibits apoptosis	a little enhanced effects compared to the oligo 1
